# According to ChEMBL document CHEMBL1148525, “Discovery of huperzine A-tacrine hybrids as potent inhibitors of human cholinesterases targeting their midgorge recognition sites” (J Med Chem, 2006):
# pKi: −log10 of the molar value.
# Assays:
# Acetylcholinesterase = Acetylcholinesterase (Homo sapiens, UniProt P22303)
# Cholinesterase = Cholinesterase (Homo sapiens, UniProt P06276)
# Cholinesterase, sequence (P06276 whole entry): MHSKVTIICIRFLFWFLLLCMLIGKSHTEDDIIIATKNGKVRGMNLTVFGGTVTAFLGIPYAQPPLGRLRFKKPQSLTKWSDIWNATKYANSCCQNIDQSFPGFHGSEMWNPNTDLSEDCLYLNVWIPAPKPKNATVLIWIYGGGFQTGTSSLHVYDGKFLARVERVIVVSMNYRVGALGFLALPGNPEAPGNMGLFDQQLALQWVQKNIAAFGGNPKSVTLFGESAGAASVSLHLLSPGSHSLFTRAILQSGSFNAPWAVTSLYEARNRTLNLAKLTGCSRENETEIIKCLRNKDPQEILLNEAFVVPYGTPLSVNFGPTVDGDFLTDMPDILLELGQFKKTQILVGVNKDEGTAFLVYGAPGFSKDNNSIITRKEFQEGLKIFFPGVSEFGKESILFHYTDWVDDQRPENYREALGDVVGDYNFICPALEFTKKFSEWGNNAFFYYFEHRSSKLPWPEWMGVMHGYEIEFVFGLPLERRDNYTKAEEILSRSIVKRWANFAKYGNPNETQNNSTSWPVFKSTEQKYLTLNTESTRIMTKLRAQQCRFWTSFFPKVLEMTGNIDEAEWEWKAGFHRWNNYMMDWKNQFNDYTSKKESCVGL
# Description: Inhibition of human BuChE
# Acetylcholinesterase, sequence (P22303 whole entry): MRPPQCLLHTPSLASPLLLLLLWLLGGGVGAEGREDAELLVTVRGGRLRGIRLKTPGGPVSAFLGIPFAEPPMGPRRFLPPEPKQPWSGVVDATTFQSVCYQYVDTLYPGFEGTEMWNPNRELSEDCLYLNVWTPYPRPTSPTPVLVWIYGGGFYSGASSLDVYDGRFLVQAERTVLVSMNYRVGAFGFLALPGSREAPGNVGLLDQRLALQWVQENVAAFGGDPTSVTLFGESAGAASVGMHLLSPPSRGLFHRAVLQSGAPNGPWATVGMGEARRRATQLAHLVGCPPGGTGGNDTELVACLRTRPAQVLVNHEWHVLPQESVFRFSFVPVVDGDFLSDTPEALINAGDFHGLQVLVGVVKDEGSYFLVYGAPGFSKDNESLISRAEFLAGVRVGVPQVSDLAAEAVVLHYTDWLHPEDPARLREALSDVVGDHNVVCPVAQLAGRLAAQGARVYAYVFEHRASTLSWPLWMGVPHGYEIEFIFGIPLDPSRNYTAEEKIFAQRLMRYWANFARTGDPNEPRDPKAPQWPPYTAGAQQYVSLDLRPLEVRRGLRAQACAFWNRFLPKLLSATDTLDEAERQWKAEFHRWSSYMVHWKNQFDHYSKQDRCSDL
SMILES,pKi (Acetylcholinesterase),pKi (Cholinesterase)
C/C=C1\C2C=C(C)C[C@]1(N)CC(NCCCCCCCNc1c3c(nc4ccccc14)CCCC3)C2(C)C (stereo not given in full),7.78,7.68
C/C=C1\C2C=C(C)C[C@]1(N)CC(NCCCCCCCNc1c3c(nc4ccccc14)CCCC3)C2 (stereo not given in full),7.80,7.51
C/C=C1\[C@H]2C=C(C)C[C@]1(N)c1ccc(=O)[nH]c1C2 [HUPERZINE A],,< 6.00
